According to US5972894A, “Peptides having potassium channel opener activity” (Cytran, Inc., priority 1997, dated 1999):
Residues, ends and D or L forms follow the SMILES beside them.

Test system: ischemic myocardium
Assay: Inotropic function and arrhythmias of ischemic isolated rat heart during reperfusion
Details: for -dp/dtmax, % of preischemic value: by the 30th minute of reperfusion
Description: Rat hearts were surgically isolated from white random-bred rats weighing approximately 250 g. The isolated hearts were perfused with a standard oxygenated (95% O2 and 5% CO2) Krebs-Henseleit solution in a retrograde manner (i.e., according to Langendorff and using a constant perfusate pressure of 80 cm of water). The hearts maintained a steady spontaneous contraction rate. A latex balloon catheter connected to a pressure transducer (EMT-746, Siemens-Elema, Sweden) was inserted into the left ventricle of each heart to measure the inotropic function of the heart (as described in Example 3, above). The left ventricle pressure variation curve was recorded using a polygraph.
Stage I ("adaptation regimen") consisted of a 30-minute adaptation of the respective rat hearts to the perfusion regimen. The baseline parameters for the inotropic function of each heart were recorded to establish the preischemic values for the following measured parameters: (i) the systolic pressure in the left ventricle (Psyst. mm Hg); (ii) the diastolic pressure in the left ventricle (Pdiast. mm Hg); (iii) the evolving pressure (Pev. =Psyst. -Pdist. mm Hg); (iv) the maximal rate of increase of left ventricle pressure (+dp/dtmax mm Hg/sec); and (v) the maximal rate of decrease of left ventricle pressure (-dp/dtmax mm Hg/sec). In addition, the heart rate (HR) of each heart was determined from the recordings made of the variations in the left ventricle pressure over time. In Stage II ("ischemic simulation"), ischemia was induced in each heart by shutting off the supply of the perfusion solution to the heart. Approximately 30 minutes later, Stage III ("reperfusion regimen") was initiated by restarting the reperfusion and including in the perfusate solution a test or control substance at one of the following respective concentrations: a perfusate solution of a test substance comprised 0.06, 0.6, or 6.0 mg/l GE, or 0.06, 0.6, or 6.0 mg/l VT, respectively; a perfusate solution of the positive control substance comprised 14 mg/l inosine. Inosine is a nucleoside preparation that produces a favorable inotropic effect on both normal and ischemic myocardium while inducing no rhythm disturbances or acceleration of ischemic contracture development. Woollard et al., Cardiovasc. Res. 15: 659-67 (1981). Inosine was obtained from Sigma Chemical Company, USA (Cat. Code I-4125; lot number 81H0227). The negative control substance comprised reperfusion using a standard oxygenated Krebs-Henseleit solution.
For each heart, the inotropic function of the myocardium was evaluated by measuring the parameters (i) through (v), discussed above, and the heart rate. These six parameters were recorded continuously throughout the study (i.e., beginning with Stage I and continuing through Stage III). The recordings were analyzed at the following times: (a) immediately before beginning Stage II (that is, after the 30-minute Stage I adaptation period, but before stopping perfusion); and (b) at 1, 5, 10, 20, and 30 minutes into the Stage III reperfusion.
The frequency and duration of rhythm disturbances in the 30-minute Stage III reperfusion period were determined by measuring the following parameters: (i) the number of ventricular extrasystoles; (ii) the overall duration of ventricular tachycardias (in seconds); and (iii) the overall duration of ventricular fibrillation (in seconds). Each dose of the test substance was tested on nine isolated hearts.

[1] = 6.0 mg/l, 30-minute reperfusion

NCC(=O)N[C@@H](CCC(=O)O)C(=O)O [GE, L-Glycyl-L-Glutamic acid] (H-Gly-Glu-OH)
Systolic Pressure in Ischemic Left Ventricle (% of Preischemic Values) (0.6 mg/l, 10 min reperfusion): 88.40%
Diastolic Pressure in Ischemic Left Ventricle (% of Preischemic Mean Value) (0.6 mg/l, 20 min reperfusion): 99.28%
Evolving Pressure in Ischemic Left Ventricle (% of Preischemic Mean Value) (0.6 mg/l, 20 min reperfusion): 78.42%
Heart Rate during Reperfusion (% of Preischemic Mean Value) (0.6 mg/l, 20 min reperfusion): 91.53%
Maximal Rate of Increase of Left Ventricle Pressure (% of Preischemic Mean Value) (0.6 mg/l, 20 min reperfusion): 81.12%
Maximal Rate of Left Ventricle Pressure Decrease (% of Preischemic Mean Value) (0.6 mg/l, 20 min reperfusion): 84.10%
Systolic Pressure in Ischemic Left Ventricle (% of Preischemic Values) (0.6 mg/l, 20 min reperfusion): 82.35%
Diastolic Pressure in Ischemic Left Ventricle (% of Preischemic Mean Value) (0.6 mg/l, 30 min reperfusion): 127.06%
Evolving Pressure in Ischemic Left Ventricle (% of Preischemic Mean Value) (0.6 mg/l, 30 min reperfusion): 87.22%
Heart Rate during Reperfusion (% of Preischemic Mean Value) (0.6 mg/l, 30 min reperfusion): 106.61%
Maximal Rate of Increase of Left Ventricle Pressure (% of Preischemic Mean Value) (0.6 mg/l, 30 min reperfusion): 97.62%
Maximal Rate of Left Ventricle Pressure Decrease (% of Preischemic Mean Value) (0.6 mg/l, 30 min reperfusion): 91.20%
Systolic Pressure in Ischemic Left Ventricle (% of Preischemic Values) (0.6 mg/l, 30 min reperfusion): 91.89%
restoration of +dp/dtmax (0.6 mg/l, after 30 minutes of reperfusion): nearly to its preischemic level
evolving pressure, % of preischemic level (0.6 mg/l, after about 20 or about 30 minutes of reperfusion, respectively): ≥ 85%
-dp/dtmax, % of preischemic value (0.6 mg/l): greater than 90%
Number of Ventricular Extrasystoles [1]: 174.9
Overall Duration of Ventricular Fibrillation [1]: 79.6 s
Overall Duration of Ventricular Tachycardia [1]: 5.2 s
Diastolic Pressure in Ischemic Left Ventricle (% of Preischemic Mean Value) (6.0 mg/l, 1 min reperfusion): 53.97%
Evolving Pressure in Ischemic Left Ventricle (% of Preischemic Mean Value) (6.0 mg/l, 1 min reperfusion): 78.34%
Heart Rate during Reperfusion (% of Preischemic Mean Value) (6.0 mg/l, 1 min reperfusion): 38.86%
Maximal Rate of Increase of Left Ventricle Pressure (% of Preischemic Mean Value) (6.0 mg/l, 1 min reperfusion): 71.18%
Maximal Rate of Left Ventricle Pressure Decrease (% of Preischemic Mean Value) (6.0 mg/l, 1 min reperfusion): 59.93%
Systolic Pressure in Ischemic Left Ventricle (% of Preischemic Values) (6.0 mg/l, 1 min reperfusion): 72.87%
Diastolic Pressure in Ischemic Left Ventricle (% of Preischemic Mean Value) (6.0 mg/l, 5 min reperfusion): 65.08%
Evolving Pressure in Ischemic Left Ventricle (% of Preischemic Mean Value) (6.0 mg/l, 5 min reperfusion): 68.80%
Heart Rate during Reperfusion (% of Preischemic Mean Value) (6.0 mg/l, 5 min reperfusion): 55.65%
Maximal Rate of Increase of Left Ventricle Pressure (% of Preischemic Mean Value) (6.0 mg/l, 5 min reperfusion): 68.10%
Maximal Rate of Left Ventricle Pressure Decrease (% of Preischemic Mean Value) (6.0 mg/l, 5 min reperfusion): 70.76%
Systolic Pressure in Ischemic Left Ventricle (% of Preischemic Values) (6.0 mg/l, 5 min reperfusion): 67.10%
Diastolic Pressure in Ischemic Left Ventricle (% of Preischemic Mean Value) (6.0 mg/l, 10 min reperfusion): 103.17%
Evolving Pressure in Ischemic Left Ventricle (% of Preischemic Mean Value) (6.0 mg/l, 10 min reperfusion): 74.86%
Heart Rate during Reperfusion (% of Preischemic Mean Value) (6.0 mg/l, 10 min reperfusion): 82.12%
Maximal Rate of Increase of Left Ventricle Pressure (% of Preischemic Mean Value) (6.0 mg/l, 10 min reperfusion): 77.78%
Maximal Rate of Left Ventricle Pressure Decrease (% of Preischemic Mean Value) (6.0 mg/l, 10 min reperfusion): 93.15%
Systolic Pressure in Ischemic Left Ventricle (% of Preischemic Values) (6.0 mg/l, 10 min reperfusion): 77.71%
Diastolic Pressure in Ischemic Left Ventricle (% of Preischemic Mean Value) (6.0 mg/l, 20 min reperfusion): 83.98%
Evolving Pressure in Ischemic Left Ventricle (% of Preischemic Mean Value) (6.0 mg/l, 20 min reperfusion): 78.47%
Heart Rate during Reperfusion (% of Preischemic Mean Value) (6.0 mg/l, 20 min reperfusion): 77.12%
Maximal Rate of Increase of Left Ventricle Pressure (% of Preischemic Mean Value) (6.0 mg/l, 20 min reperfusion): 82.47%
Maximal Rate of Left Ventricle Pressure Decrease (% of Preischemic Mean Value) (6.0 mg/l, 20 min reperfusion): 95.32%
Systolic Pressure in Ischemic Left Ventricle (% of Preischemic Values) (6.0 mg/l, 20 min reperfusion): 77.71%
Diastolic Pressure in Ischemic Left Ventricle (% of Preischemic Mean Value) (6.0 mg/l, 30 min reperfusion): 132.47%
Evolving Pressure in Ischemic Left Ventricle (% of Preischemic Mean Value) (6.0 mg/l, 30 min reperfusion): 73.08%
Heart Rate during Reperfusion (% of Preischemic Mean Value) (6.0 mg/l, 30 min reperfusion): 63.29%
Maximal Rate of Increase of Left Ventricle Pressure (% of Preischemic Mean Value) (6.0 mg/l, 30 min reperfusion): 74.49%
Maximal Rate of Left Ventricle Pressure Decrease (% of Preischemic Mean Value) (6.0 mg/l, 30 min reperfusion): 93.07%
Systolic Pressure in Ischemic Left Ventricle (% of Preischemic Values) (6.0 mg/l, 30 min reperfusion): 79.73%
-dp/dtmax, % of preischemic value (6.0 mg/l): greater than 90%
arrhythmogenic effect during reperfusion (0.06-6.0 mg/l): Neither GE nor VT was found to have an arrhythmogenic effect
effect on systolic pressure drop (0.06 and 0.6 mg/l): prevented the dramatic drop in systolic pressure
chronotropic effect on heart rate (0.06 and 6.0 mg/l): moderate negative chronotropic effect
effect on diastolic pressure increase (reperfusion): prevented the increase in diastolic pressure
